Experimental data reported in US12527753B2, “Cysteamine for the treatment, mitigation and prevention of coronaviral, e.g., SARS-CoV-2, infections” (The Regents of the University of Michigan, priority 2020, dated 2026).

System: SARS-CoV-2 Variants Alpha, Beta, Gamma and Delta
Assay: In vitro activity against SARS-CoV-2 variants (pooled statements)

## 2-aminoethanethiol [cysteamine]
10 mM solution, contingent on time of exposure and concentration
  inactivation of the virus in tissue culture: 85-100%
10 mM, 15-90 minutes exposure
  inactivation of the variants: near complete inactivation
